Results as given in PubChem BioAssay AID248 (DTP/NCI, 2004).
Toxic doses and inconclusive results are not listed. Rule as the data show it: active = T/C of 150% or more; inactive = T/C below 125%.

Test system: L1210 leukemia ip in BDF1 mice, survival T/C
Test: NCI In Vivo Anticancer Drug Screen. Data for tumor model L1210 Leukemia (intraperitoneal) in B6D2F1 (BDF1) mice
Details: endpoint: mean survival time, higher = longer survival
Outline: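 Each compound was tested against a transplantable tumor grown in mice. The endpoint was survival, with treated animals benchmarked against vehicle controls as a simple ratio.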

[1] = dose: 12.5 mg/kg/injection, schedule: Q01DX009 (ip), vehicle: Klucel (hydroxypropylcellulose) (HPC)
[2] = dose: 25.0 mg/kg/injection, schedule: Q01DX009 (ip), vehicle: Klucel (hydroxypropylcellulose) (HPC)
[3] = dose: 100.0 mg/kg/injection, schedule: Q04DX003 (ip), vehicle: Klucel (hydroxypropylcellulose) (HPC)
[4] = dose: 200.0 mg/kg/injection, schedule: Q04DX003 (ip), vehicle: Klucel (hydroxypropylcellulose) (HPC)
[5] = dose: 400.0 mg/kg/injection, schedule: Q04DX003 (ip), vehicle: Klucel (hydroxypropylcellulose) (HPC)
[6] = dose: 50.0 mg/kg/injection, schedule: Q01DX001 (ip), vehicle: saline
[7] = dose: 100.0 mg/kg/injection, schedule: Q01DX001 (ip), vehicle: saline
[8] = dose: 200.0 mg/kg/injection, schedule: Q01DX001 (ip), vehicle: saline
[9] = dose: 400.0 mg/kg/injection, schedule: Q01DX001 (ip), vehicle: saline
[10] = dose: 100.0 mg/kg/injection, schedule: Q04DX003 (ip), vehicle: saline with Tween-80
[11] = dose: 200.0 mg/kg/injection, schedule: Q04DX003 (ip), vehicle: saline with Tween-80
[12] = dose: 400.0 mg/kg/injection, schedule: Q04DX003 (ip), vehicle: saline with Tween-80
[13] = dose: 100.0 mg/kg/injection, schedule: Q04DX003 (ip), vehicle: saline
[14] = dose: 200.0 mg/kg/injection, schedule: Q04DX003 (ip), vehicle: saline
[15] = dose: 100.0 mg/kg/injection, schedule: Q01DX009 (ip), vehicle: saline with Tween-80
[16] = dose: 200.0 mg/kg/injection, schedule: Q01DX009 (ip), vehicle: saline with Tween-80
[17] = dose: 100.0 mg/kg/injection, schedule: Q04DX002 (ip), vehicle: Klucel (hydroxypropylcellulose) (HPC)

Measured: T/C

CCC(CCN(CC=C(C)C)CC=C(C)C)(C(N)=O)c1cccc2ccccc12 (stereo not given)
inactive: dose: 6.25 mg/kg/injection, schedule: Q01DX009 (ip), vehicle: Klucel (hydroxypropylcellulose) (HPC) 96 % of control | dose: 6.25 mg/kg/injection, schedule: Q04DX003 (ip), vehicle: Klucel (hydroxypropylcellulose) (HPC) 107 % of control | [1] 101 % of control | dose: 12.5 mg/kg/injection, schedule: Q04DX003 (ip), vehicle: Klucel (hydroxypropylcellulose) (HPC) 100 % of control | [2] 96 % of control | dose: 25.0 mg/kg/injection, schedule: Q04DX003 (ip), vehicle: Klucel (hydroxypropylcellulose) (HPC) 102 % of control

CCCCCCCC[n+]1ccc(C#N)cc1
inactive: dose: 18.8 mg/kg/injection, schedule: Q04DX003 (ip), vehicle: saline 97 % of control | dose: 37.5 mg/kg/injection, schedule: Q04DX003 (ip), vehicle: saline 100 % of control | dose: 75.0 mg/kg/injection, schedule: Q01DX001 (ip), vehicle: saline 96 % of control | dose: 75.0 mg/kg/injection, schedule: Q04DX003 (ip), vehicle: saline 100 % of control

O=C1c2ccccc2C(=O)N1Cc1cccc([N+](=O)[O-])c1
inactive: [1] 87 % of control | [2] 87 % of control | dose: 50.0 mg/kg/injection, schedule: Q01DX009 (ip), vehicle: Klucel (hydroxypropylcellulose) (HPC) 94 % of control | [3] 93 % of control | [4] 97 % of control | [5] 90 % of control

CC(=O)NCC1OC(COCc2ccccc2)C(OCc2ccccc2)C1OCc1ccccc1 (stereo not given)
inactive: [3] 107 % of control | [4] 96 % of control | [5] 107 % of control

Nc1ncnc2c1ncn2CCC(O)c1ccccc1 (stereo not given)
inactive: [6] 95 % of control | [7] 93 % of control | [8] 95 % of control | [9] 93 % of control

O=C(Cc1ccccc1)ONC(CCCCNC(=O)OCc1ccccc1)C(=O)Nc1ccc(Cc2ccc(NC(=O)C(CCCCNC(=O)OCc3ccccc3)NC(=O)OCc3ccccc3)cc2)cc1 (stereo not given)
inactive: [6] 95 % of control | [7] 95 % of control | [8] 95 % of control | [9] 95 % of control

CC(=O)Nc1ccc(/C=C(\C#N)c2ccc(C)cc2)cc1
inactive: [10] 87 % of control | [11] 90 % of control | [12] 101 % of control

OCC1=CCN(CCc2c[nH]c3ccccc23)CC1
inactive: [10] 95 % of control | [11] 88 % of control | [12] 94 % of control

CC(O)C(O)C(O)C(/C=N\NC(N)=S)=N/NC(N)=S (stereo not given)
inactive: dose: 100.0 mg/kg/injection, schedule: Q01DX009 (ip), vehicle: saline 95 % of control | [13] 104 % of control | dose: 200.0 mg/kg/injection, schedule: Q01DX009 (ip), vehicle: saline 89 % of control | [14] 105 % of control | dose: 400.0 mg/kg/injection, schedule: Q01DX009 (ip), vehicle: saline 90 % of control | dose: 400.0 mg/kg/injection, schedule: Q04DX003 (ip), vehicle: saline 94 % of control

CC(=O)N/N=C/c1cccc([N+](=O)[O-])c1
inactive: dose: 50.0 mg/kg/injection, schedule: Q01DX009 (ip), vehicle: saline with Tween-80 102 % of control | [15] 97 % of control | [16] 94 % of control

O=C(Nc1ccc2c3c(ccc(NC(=O)c4ccccc4)c13)C=C2)c1ccccc1
inactive: [6] 102 % of control | [7] 100 % of control | [8] 100 % of control | [9] 100 % of control

O=C(C1C2CCC(C2)C1C(=O)N1CCCCC1)N1CCCCC1 (stereo not given)
inactive: [10] 100 % of control | [11] 100 % of control | [12] 100 % of control

Cc1ccc(CNC(=O)Nc2cccc(Cl)c2)cc1
inactive: [17] 115 % of control | dose: 200.0 mg/kg/injection, schedule: Q04DX002 (ip), vehicle: Klucel (hydroxypropylcellulose) (HPC) 102 % of control | dose: 400.0 mg/kg/injection, schedule: Q04DX002 (ip), vehicle: Klucel (hydroxypropylcellulose) (HPC) 108 % of control

O=C1OC(c2ccccc2)(c2ccccn2)c2ccccc21 (stereo not given)
inactive: [15] 90 % of control | [16] 92 % of control | dose: 400.0 mg/kg/injection, schedule: Q01DX009 (ip), vehicle: saline with Tween-80 88 % of control

O=C(O)c1ccc(N/N=C\c2cc(=O)[nH]c(=O)[nH]2)cc1
inactive: dose: 5.0 mg/kg/injection, schedule: Q01DX001 (ip), vehicle: saline 97 % of control | dose: 10.0 mg/kg/injection, schedule: Q01DX001 (ip), vehicle: saline 97 % of control | dose: 20.0 mg/kg/injection, schedule: Q01DX001 (ip), vehicle: saline 98 % of control | dose: 40.0 mg/kg/injection, schedule: Q01DX001 (ip), vehicle: saline 97 % of control

COc1cc(Cn2cccc2/C=N/NC(N)=S)c([N+](=O)[O-])cc1OC
inactive: dose: 25.0 mg/kg/injection, schedule: Q04DX002 (ip), vehicle: Klucel (hydroxypropylcellulose) (HPC) 100 % of control | dose: 50.0 mg/kg/injection, schedule: Q04DX002 (ip), vehicle: Klucel (hydroxypropylcellulose) (HPC) 104 % of control | [17] 93 % of control

CN=C(Nc1ccccc1C)SC
inactive: dose: 50.0 mg/kg/injection, schedule: Q04DX003 (ip), vehicle: saline 100 % of control | [7] 98 % of control | [13] 100 % of control | [8] 102 % of control | [14] 106 % of control

Cc1cc(C)c(/C=C2\CCNC2=O)c(C)c1
inactive: dose: 50.0 mg/kg/injection, schedule: Q01DX001 (ip), vehicle: carboxymethylcellulose (CMC) 96 % of control | dose: 100.0 mg/kg/injection, schedule: Q01DX001 (ip), vehicle: carboxymethylcellulose (CMC) 90 % of control | dose: 200.0 mg/kg/injection, schedule: Q01DX001 (ip), vehicle: carboxymethylcellulose (CMC) 100 % of control | dose: 400.0 mg/kg/injection, schedule: Q01DX001 (ip), vehicle: carboxymethylcellulose (CMC) 105 % of control

O=C(Nc1cccc(Cl)c1Cl)Oc1ccc2ccccc2c1
inactive: dose: 100.0 mg/kg/injection, schedule: Q01DX009 (ip), vehicle: Klucel (hydroxypropylcellulose) (HPC) 100 % of control | dose: 200.0 mg/kg/injection, schedule: Q01DX009 (ip), vehicle: Klucel (hydroxypropylcellulose) (HPC) 105 % of control | dose: 400.0 mg/kg/injection, schedule: Q01DX009 (ip), vehicle: Klucel (hydroxypropylcellulose) (HPC) 103 % of control

CC1(C)OC2C(C(=O)O)OC(n3cnc4c(N)ncnc43)C2O1 (stereo not given)
inactive: dose: 100.0 mg/kg/injection, schedule: Q01DX005 (ip), vehicle: saline 102 % of control | dose: 200.0 mg/kg/injection, schedule: Q01DX005 (ip), vehicle: saline 104 % of control

C=C(C)COC(=O)Nc1cccc(O)c1
inactive: dose: 100.0 mg/kg/injection, schedule: Q01DX001 (ip), vehicle: saline + alcohol 96 % of control | dose: 200.0 mg/kg/injection, schedule: Q01DX001 (ip), vehicle: saline + alcohol 96 % of control

CCCCCCCCCCCCNNC(=O)OCCO
inactive: [7] 101 % of control | [8] 93 % of control
